According to patent US20150080292A1 (priority 2013, published 2015):
Converted amounts (≈) assume the structure as drawn. Where a SMILES comes first, the peptide text is derived from it. Bridges are numbered along the chain shown (N, C = ends). The star is where a group is joined. Pentadecanoyl = CCCCCCCCCCCCCCC(=O)*; Tridecanoyl = CCCCCCCCCCCCC(=O)*; Myristoyl = CCCCCCCCCCCCCC(=O)*

Assays:
Fusarium oxysporum = assay: Anti-fungus plate experiment (growth diameter on LB medium with drug); assay type: cell-based; conditions: LB plates, 28° C.
Protocol: (§1) The anti-fungi experiment, with 6 treatments of different drug concentration and three replicates each treatment and sterile water as blank check, was conducted by mixing Locillomycin-A, Locillomycin-B and Locillomycin-C separately into different plates containing LB medium and, then, inoculating pathogenic fungi in the center of the plates, followed by incubation at 28° C. to check the effectiveness of antifungal function. The criteria of the effectiveness were defined as the size of orthogonal cross diameter of the pathogen growth.

Rhizoctonia solani = assay: as above; assay type: cell-based; conditions: LB plates, 28° C.
Protocol: as §1

Fusarium graminearum = conditions: LB plates, 28° C.
[1] = solvents in which the compound dissolves

| Structure (SMILES) | IC50 (Fusarium oxysporum) | IC90 (Fusarium oxysporum) | IC50 (Rhizoctonia solani) | IC90 (Rhizoctonia solani) | IC50 (Fusarium graminearum) | IC90 (Fusarium graminearum) | Solubility [1] |
| --- | --- | --- | --- | --- | --- | --- | --- |
| CCCCCCCCCCCCC(=O)NC1C(=O)NC(CCC(N)=O)C(=O)NC(CC(=O)O)C(=O)NCC(=O)NC(CC(N)=O)C(=O)NC(CC(=O)O)C(=O)NCC(=O)NC(Cc2ccc(O)cc2)C(=O)NC(C(C)C)C(=O)OC1C (stereo not drawn) [Locillomycin-A] (Tridecanoyl-TQDGNDGYV; ester 1-C; configuration not given here) | 12.5 µg/mL (≈ 10.9 µM) | 56.3 µg/mL (≈ 49.1 µM) | 15.5 µg/mL (≈ 13.5 µM) | 45.9 µg/mL (≈ 40 µM) | 25.4 µg/mL (≈ 22.2 µM) | >100 µg/mL | Methanol, Dimethyl |
| CCCCCCCCCCCCCCC(=O)NC1C(=O)NC(CCC(N)=O)C(=O)NC(CC(=O)O)C(=O)NCC(=O)NC(CC(N)=O)C(=O)NC(CC(=O)O)C(=O)NCC(=O)NC(Cc2ccc(O)cc2)C(=O)NC(C(C)C)C(=O)OC1C (stereo not drawn) [Locillomycin-C] (Pentadecanoyl-TQDGNDGYV; ester 1-C; configuration not given here) | 10.3 µg/mL (≈ 8.77 µM) | 46.8 µg/mL (≈ 39.9 µM) | 12.4 µg/mL (≈ 10.6 µM) | 38.6 µg/mL (≈ 32.9 µM) | 21.7 µg/mL (≈ 18.5 µM) | >100 µg/mL | Methanol, Dimethyl |
| CCCCCCCCCCCCCC(=O)NC1C(=O)NC(CCC(N)=O)C(=O)NC(CC(=O)O)C(=O)NCC(=O)NC(CC(N)=O)C(=O)NC(CC(=O)O)C(=O)NCC(=O)NC(Cc2ccc(O)cc2)C(=O)NC(C(C)C)C(=O)OC1C (stereo not drawn) [Locillomycin-B] (Myristoyl-TQDGNDGYV; ester 1-C; configuration not given here) | 11.6 µg/mL (≈ 10 µM) | 48.9 µg/mL (≈ 42.1 µM) | 13.8 µg/mL (≈ 11.9 µM) | 40.6 µg/mL (≈ 35 µM) | 22.6 µg/mL (≈ 19.5 µM) | >100 µg/mL | Methanol, Dimethyl |
